In article PMC12974487, “Inhibition of FicD-mediated AMPylation and deAMPylation by isoprenoid diphosphates” (Proceedings of the National Academy of Sciences of the …, 2026):
Changes are numbered by the printed parent chain. pEC50, pKd: −log10 of the molar value. Values joined by “and” are separate entries in the source; they are usually repeats but may differ in a detail not shown here. Identical values can stand only once. Like-named read-outs stand apart in the source and are kept apart here.

Tests used:
Assay type in all cases: binding
FicD^L258D [1] = target: T1, FicD^L258D (Homo sapiens, UniProt Q9BVA6, L258D); experiment: Isothermal titration calorimetry (ITC) with Δ104hFicD^L258D; conditions: 4 mM MgCl2, 20 °C, 1σ error interval in parenthesis
T1 construct: soluble ER luminal domain (residues 105 to 458) of wild-type human FicD and three mutants; 6xHis-Sumo (N, cleaved yes); made in house; host or cells: Rosetta(DE3) E. coli
T1 sequence (Q9BVA6 105-458 L258D): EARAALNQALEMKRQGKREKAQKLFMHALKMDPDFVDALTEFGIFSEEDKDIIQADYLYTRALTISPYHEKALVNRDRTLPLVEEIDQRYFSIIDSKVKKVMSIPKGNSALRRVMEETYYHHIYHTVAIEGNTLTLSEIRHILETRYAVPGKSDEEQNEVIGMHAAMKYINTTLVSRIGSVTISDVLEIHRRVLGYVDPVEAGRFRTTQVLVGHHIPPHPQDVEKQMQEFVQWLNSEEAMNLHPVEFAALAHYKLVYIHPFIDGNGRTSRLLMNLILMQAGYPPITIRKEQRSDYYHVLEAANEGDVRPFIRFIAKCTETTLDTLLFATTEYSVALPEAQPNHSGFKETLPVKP
Description: To further support this notion, we used Isothermal Titration Calorimetry (ITC) to determine the Kd of FPP binding. […] In these experiments, the interaction between FPP and Mg^2+ generated endothermic peaks that interfered with detecting the interaction between FPP, Mg^2+, and FicD (Fig. 3, Upper). The stoichiometry of FPP binding to FicD was consistently <0.85, which may indicate that Mg^2+ was not saturating. Because the endothermic interaction between Mg^2+ and FPP limited the quantity of MgCl2 we could add, the measured Kd could be larger than the true value.
Fig. 3. ITC with FicD and Farnesyl-pyrophosphate. Representative ITC thermogram for FPP binding to Δ104hFicD^L258D (Upper). […] Dissociation constants (Kd) of individual replicates and global fitting of triplicate isotherms are reported with 1σ error intervals in parenthesis. TEXT PRINTED IN THE PICTURE: no label printed: Kd (nM): 32.3 (15.6, 54.9) (Replicate 1); Kd (nM): 25.6 (10.1, 47.7) (Replicate 2); Kd (nM): 45.2 (29.4, 68.8) (Replicate 3); Kd (nM): 60.3 (23.1, 126.3) (Global) DOUBTS OF THE COPYIST ABOUT THIS PICTURE: The picture prints no substance label; the table rows are replicates and a global fit of one measurement, so all four Kd values are given under one unlabeled substance. […]
Isothermal Titration Calorimetry
Proteins were dialyzed against 25mM HEPES pH 7.4/100mM KCl/10% glycerol prior to titration.
Dialyzed proteins were then spun down at 21,000G for 15 minutes at 4C to remove trace insoluble material. The protein concentration was measured spectrophotometrically and then diluted to working concentration with 25mM HEPES pH 7.4/100mM KCl/10% glycerol. MgCl2 was added to proteins to a final concentration of 4mM. ITC experiments were performed in a Micro-Cal PEAQ-ITC (Malvern Panalytical, Worcestershire, UK) calorimeter with a stirred 206.2 μL reaction cell held at 20 °C. 250μM FPP was titrated into 25uM Δ104hFicL258D with 750rpm stirring. The first injection was 0.5 μL, followed by twenty 1.9 μL injections. ITC data were integrated and baseline corrected using NITPIC 2.1.5 (10, 11). Integrated data was globally analyzed in SEDPHAT 15.b (12) using a model considering a single class of binding sites. […]
10% Lithium dodecyl sulfate, 50% glycerol, 50mM DTT, 0.05% Bromophenol blue) and then heated […]
For deAMPylation assays with FicD and BiP, Δ26hBiPT229A was in-vitro AMPylated by […]
5mM MgCl2, 500uM ATP, 0.5% CHAPS, 1mM DTT. After one hour of incubation at 30-37C, the entire reaction mix was transferred into an Amicon 0.5mL 50kDa MWCO concentrator (cat no.
7.4/150mM NaCl/10% glycerol/1mM DTT was added to the concentrated AMPylation reaction and then spun down again at 14,000 x g at 4C for 5-10 minutes. This step was repeated four times to buffer exchange AMPylated Δ26hBiPT229A.
Δ104hFicDWT and Δ26hBiPT229A-AMP were combined at a ratio of 1:80 in buffer containing 25mM HEPES pH 7.4, 100mM KCl, 5mM MgCl2, 1mM DTT and the indicated small molecule where applicable. Reactions were incubated at 37C for 1 hour and stopped by the addition EDTA. 5X SDS sample buffer (250mM Tris pH 6.8, 10% Lithium dodecyl sulfate, 50% glycerol, 50mM DTT, 0.05% Bromophenol blue) was then added to the reactions and reactions were heated for 5 minutes at […]
For in-vitro AMPylation assays with VopS and CDC42, Δ30VopS and GST-CDC42 – provided by a previous lab member – were combined at a 1:80 molar ratio in 50mM Tris pH 7.4/100mM NaCl/1mM DTT in the presence of GPP or FPP, where applicable. […]

FicD^L258D [2] = target: T1, FicD^L258D; experiment: Differential scanning fluorimetry (DSF) thermal shift with FicD^L258D
Procedure: Differential Scanning Fluorimetry
Thermal shift assays were performed in Biorad CfX384 Touch Real-Time PCR Detection System […]
Reactions contained 50mM HEPES pH 7.4, 200mM NaCl, 200mM KCl, 200uM DTT, 5X Invitrogen Sypro Orange (Cat no. S6650), 8-9μM protein, and indicated nucleotide, cofactor, or small molecule in a total volume of 20uL. For every experiment ‘no protein’ controls were also included with the same reaction conditions. All reactions were performed in technical triplicates. Sealed plates containing reaction mixes were centrifuged for 1-5 min at 1000 RPM prior to temperature scanning (FRET channel), which was performed from 6°C […]
DSF data was analyzed with traditional methods automated in a Python package (https://pypi.org/project/instawell/). Briefly, for each temperature, the RFU values of technical triplicates are averaged. For each timepoint, the background fluorescence was subtracted using the RFU values of the ‘no protein’ control. […]
calculated. The melting temperature (Tm) is defined as the first derivative peak value. Data

FicD^L258D [3] = target: T1, FicD^L258D; experiment: MIDAS metabolite screen, FicD^L258D; conditions: cutoff Q < 0.05 and |Log2 corrected fold change| > 2, metabolites 5 µM
Description: To identify small-molecule metabolite interactions with FicD, we applied an unbiased high-throughput screening approach known as MIDAS ([44]). Given the high concentrations of protein required for MIDAS screening, we purified the soluble ER luminal domain (residues 105 to 458) of wild-type human FicD and three mutants FicD^E234G, FicD^L258D, and FicD^H363A for screening (Fig. 1A). These mutants were selected based on their well-established biochemical features ([23], [24], [31]). All three are predicted to enhance detection of protein–metabolite interactions (PMIs) relative to FicD^WT through increased affinity for nucleotide substrates (FicD^E234G), improved solubility (FicD^L258D), and loss of catalytic turnover (FicD^H363A) (Fig. 1A). To decrease the potential for nonspecific small-molecule binding, we ensured the purity of our FicD proteins (SI Appendix, Fig. S1 A and B). As reported by other investigators ([24], [31]), we observe an increase in elution volume of the FicD^L258D mutant, consistent with its monomerization (SI Appendix, Fig. S1C).
Out of the 602 naturally occurring human metabolites in the MIDAS library, we applied a significance cutoff (q value < 0.05) to identify 12 PMIs with a Log2 (corrected fold change) of >2 and two PMIs with a Log2 (corrected fold change) <-2 in the FicD^WT screen (Fig. 1B and SI Appendix, Table S2). Hits were additionally triaged based on detection of multiple adducts of the metabolite in a single dataset (FPP and […] in Fig. 1B) and identification of the same metabolites across three or more of the FicD construct screens (Fig. 1C). Three chemical classes passed this initial triage: adenosine nucleotides, isoprenoid diphosphates, and thyroid hormone intermediates (Fig. 1 B and C and SI Appendix, Tables S2–S5).
22°C. Induced cultures were then harvested by centrifugation at 8000G for 15 minutes at 4°C and […]
Bacterial pellets were resuspended in 30-50mL of 50mM Tris pH 7.4/150mM NaCl/10% glycerol with one Roche cOmplete EDTA-Free Protease inhibitor cocktail tablet (cat no. COEDTAF-RO).
Triton-X100 to a final concentration of 0.2%, Chicken-egg lysozyme to a final concentration of 0.4ug/mL, and 2-5uL of Millipore Benzonase Nuclease (cat no. 70664) were added to bacterial suspension prior to sonication at 40-50% amplitude for 1-3 minutes in pulses of 5 seconds on and 30 seconds off on ice with a Sonics VCX 750 Ultrasonicator. Bacterial lysate was then clarified by centrifugation at 30,000 x g for 30 minutes at 4°C.
Clarified lysate was rotated with Qiagen NiNTA agarose beads (cat no. 30210) for 1-2 hours at 4°C. The beads were then transferred to a 15mL conical vial, resuspended in 10-15mL wash buffer (50mM Tris pH 7.4/150mM NaCl/10% glycerol/0.2% Triton-X 100/10mM imidazole), and spun down at 1000G for 1 minute at 4°C, after which the supernatant was aspirated from the beads. This washing step was repeated 2-4 times to rinse bacterial lysate from the beads prior to on-column washing. The beads were then transferred to BioRad Econopac 20mL bed volume column (cat no.
7321010) and washed with 10-15mL of wash buffer (repeated at least three times), 10mL of ATP wash (50mM Tris pH 7.4/300mM KCl/10mM MgCl2/500uM ATP, repeated once), and finally with 10-15mL wash buffer without Triton-X 100 (repeated at least three times). Protein was eluted in 500μL-1mL elution buffer (50mM Tris pH 7.5/150mM NaCl/10% glycerol/0.5% CHAPS). […]

FicD^E234G = target: T2, FicD^E234G (Homo sapiens, UniProt Q9BVA6, E234G); experiment: MIDAS metabolite screen, FicD^E234G; conditions: cutoff Q < 0.05 and |Log2 corrected fold change| > 2, metabolites 5 µM
T2 construct: soluble ER luminal domain (residues 105 to 458) of wild-type human FicD and three mutants; 6xHis-Sumo (N, cleaved yes); made in house; host or cells: Rosetta(DE3) E. coli
T2 sequence (Q9BVA6 105-458 E234G): T1 sequence (Q9BVA6 105-458 L258D) with E130G, D154L

FicD^WT = target: T3, FicD^WT (Homo sapiens, UniProt Q9BVA6); experiment: MIDAS equilibrium dialysis/mass spectrometry metabolite screen, FicD^WT; conditions: cutoff Q < 0.05 and |Log2 corrected fold change| > 2, metabolites 5 µM
T3 construct: soluble ER luminal domain (residues 105 to 458) of wild-type human FicD; 6xHis-Sumo (N, cleaved yes); made in house; host or cells: Rosetta(DE3) E. coli
T3 sequence (Q9BVA6 105-458): T1 sequence (Q9BVA6 105-458 L258D) with D154L

pKd (FicD^L258D [1]; read-out: Kd (ITC), Replicate 1)	pKd (FicD^L258D [1]; read-out: Kd (ITC), Replicate 2)	pKd (FicD^L258D [1]; read-out: Kd (ITC), Replicate 3)	pKd (FicD^L258D [1]; read-out: Kd (ITC), global fitting of triplicate isotherms)	pEC50 (FicD^L258D [2]; FicD^L258D, 5 mM MgCl2, read-out: EC50 of DSF dose-response (ΔTm))	Molecule	maximal Tm shift at saturating ligand concentration (FicD^L258D [2]; FicD^L258D, 5 mM MgCl2)	binding to FicD^L258D by DSF (FicD^L258D [2]; absence of MgCl2)	binding to FicD^L258D by DSF (FicD^L258D [2]; presence of 5 mM MgCl2)	MIDAS protein-metabolite interaction (enrichment/depletion) (FicD^L258D [3])	MIDAS protein-metabolite interaction (enrichment/depletion) (FicD^E234G)	MIDAS protein-metabolite interaction (enrichment/depletion) (FicD^WT)
7.49	7.59	7.34	~7.22 and 7.22	5.02	CC(C)=CCC/C(C)=C/CC/C(C)=C/CO[P@@](=O)(O)OP(=O)(O)O (stereo in doubt) [FPP, farnesyl-pyrophosphate]						
					deoxyadenosine diphosphate [dADP]	~ 11 °C	did not bind	binding	significantly enriched	significantly enriched	significantly enriched
